Patent US7169750B2, “Methods to mobilize progenitor/stem cells” (Anormed, Inc., priority 2001, dated 2007)
Read-outs that look alike come from different tables or passages of the source.

How the values were obtained:
progenitor cells = details: AMD3100 5 mg/Kg s.c. + MIP-1α 5 μg I.V., 11 hours after rhu G-CSF or saline, 1 hour prior to assessing the blood
Experimental: Groups of mice were randomized to receive control diluent (saline) or G-CSF at a dose of 2.5 μg per mouse, twice a day, for two days via s.c. injection. […] One hour later, the mice were sacrificed and the number of progenitor cells per mL of blood were measured.

[1] = system: granulocyte macrophage (CFU-GM), erythroid (BFU-E), and multipotential (CFU-GEMM) progenitor cells
Experimental: (§1) Five healthy human volunteers having initial white blood cell counts of 4,500–7,500 cells/mm^3 were used in the study. […] Blood samples were obtained via catheter prior to the dose, and at various times up to 24 hours after dosing.
(§2) All progenitor cell results are based on the scoring of 3 culture plates per assay per point.
(§3) For the progenitor cell numbers and cycling status, the numbers of CFU-GM, BFU-E and CFU-GEMM in methylcellulose cultures by stimulation of the cells with 1 Unit (U)/ml recombinant human (rhu) erythropoietin, 100 U/ml rhu granulocyte-macrophage colony stimulating factor (GM-CSF), 100 U/ml rhu interleukin-3 (IL-3) and 50 ng/ml rhu steel factor (SLF=stem cell factor (SCF)). The CFU-GM were also evaluated in agar cultures stimulated with 100 U/ml rhu GM-CSF and 50 ng/ml rhu SLF. For both types of assays, colonies were scored after 14 day incubation in a humidified atmosphere with 5% CO2 and lowered (5%) O2 tension. Cell cycling status of progenitors was measured using a high specific activity tritiated thymidine kill technique as previously described (Broxmeyer, H. E., et al., Exp. Hematol. (1989) 17:455–459).

CFU-GM = details: 80 μg/kg s.c.
Experimental: as §1, §2, §3

WBC = details: single dose of 80 μg/kg; Phase 1 study (Liles, et al.); cited from earlier work
[2] = system: rats with ligated left coronary artery; details: administered within hours after induction of cardiac ischemia, with or without rhG-CSF
Experimental: Adult rats are anesthetized and a thoracotomy is performed. The descending branch of the left coronary artery is ligated and not reperfused. […] Control rats are not treated with the reagents. The animals are monitored at one-week intervals by echocardiography and MRI. The experiment is terminated at 2, 6 to 12 weeks post-surgery. On the day of sacrifice, the hemodynamic functions are analyzed for left ventricle-end diastolic pressure, left ventricle-developed pressure and the rate of rise and fall of left ventricle pressure. The heart is then arrested in diastole and perfuised via the abdominal aorta to flush residual blood from the vascular network of the myocardium. This is followed by perfusion of the heart with 10% formalin. Several slices are made through the fixed heart and these are embedded in paraffin and sections. The sections are stained and analyzed by light microscopy to determine the size of the infarct in the treated and control animals. Tissue sections from hearts taken at 2 weeks after surgery are stained with antibodies specific for immature, developing myocyte and blood vessel proteins and analyzed by confocal microscopy. The immunohistochemical analysis involves the identification of transcription factors and surface markers expressed in early stages of myocyte development.

[3] = system: progenitors in DNA synthesis (S) phase; details: prior to and 1, 3, 6, 9 and 24 hours after injection
Experimental: For the progenitor cell numbers and cycling status, the numbers of CFU-GM, BFU-E and CFU-GEMM in methylcellulose cultures by stimulation of the cells with 1 Unit (U)/ml recombinant human (rhu) erythropoietin, 100 U/ml rhu granulocyte-macrophage colony stimulating factor (GM-CSF), 100 U/ml rhu interleukin-3 (IL-3) and 50 ng/ml rhu steel factor (SLF=stem cell factor (SCF)). […] For both types of assays, colonies were scored after 14 day incubation in a humidified atmosphere with 5% CO2 and lowered (5%) O2 tension. Cell cycling status of progenitors was measured using a high specific activity tritiated thymidine kill technique as previously described (Broxmeyer, H. E., et al., Exp. Hematol. (1989) 17:455–459).

[4] = system: circulating CD34+ progenitor/stem cells; details: single dose of 80 μg/kg; 6 hour time point; Phase 1 study (Liles, et al.); cited from earlier work
CXCR4 chemokine receptor = CXCR4 chemokine receptor (Homo sapiens, UniProt P61073); details: Gerlach, et al., J.Biol. Chem. (2001); cited from earlier work
Chain of CXCR4 chemokine receptor (P61073 whole entry): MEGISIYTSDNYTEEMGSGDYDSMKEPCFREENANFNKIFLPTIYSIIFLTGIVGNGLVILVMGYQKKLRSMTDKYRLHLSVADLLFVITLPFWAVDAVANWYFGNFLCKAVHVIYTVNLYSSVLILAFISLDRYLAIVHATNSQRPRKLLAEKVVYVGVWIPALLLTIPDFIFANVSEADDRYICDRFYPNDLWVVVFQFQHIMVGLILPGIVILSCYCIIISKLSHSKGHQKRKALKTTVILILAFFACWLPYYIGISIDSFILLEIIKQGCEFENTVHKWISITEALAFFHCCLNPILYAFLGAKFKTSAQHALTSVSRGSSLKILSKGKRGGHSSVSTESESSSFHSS

nucleated cells = details: T = 3 h; average of 5 donors; 80 μg/kg s.c.

SMILES: c1cc(CN2CCCNCCNCCCNCC2)ccc1CN1CCCNCCNCCCNCC1 [AMD3100, 1,1′-[1,4-phenylene-bis(methylene)]-bis-1,4,8,11-tetraazacyclotetradecane]
- mobilization of progenitor cells in combination with mu MIP-1α (progenitor cells): additive to greater than additive
- CFU-GEMM methylcellulose culture fold change from T=0 ([1]; P1, T = 1 h, 80 μg/kg s.c.): 2.07 fold
- CFU-GEMM methylcellulose culture fold change from T=0 ([1]; P1, T = 24 h, 80 μg/kg s.c.): 1.12 fold
- CFU-GM methylcellulose culture fold change from T=0 ([1]; P1, T = 24 h, 80 μg/kg s.c.): 1.10 fold
- BFU-E methylcellulose culture fold change from T=0 ([1]; P2, T = 1 h, 80 μg/kg s.c.): 1.48 fold
- BFU-E methylcellulose culture fold change from T=0 ([1]; P3, T = 1 h, 80 μg/kg s.c.): 2.30 fold
- CFU-GM methylcellulose culture fold change from T=0 ([1]; P3, T = 1 h, 80 μg/kg s.c.): 3.70 fold
- CFU-GEMM methylcellulose culture fold change from T=0 ([1]; P3, T = 9 h, 80 μg/kg s.c.): 2.47 fold
- CFU-GEMM methylcellulose culture fold change from T=0 ([1]; P3, T = 24 h, 80 μg/kg s.c.): 0.69 fold
- BFU-E methylcellulose culture fold change from T=0 ([1]; P4, T = 3 h, 80 μg/kg s.c.): 2.60 fold
- CFU-GEMM methylcellulose culture fold change from T=0 ([1]; P4, T = 6 h, 80 μg/kg s.c.): 9.10 fold
- BFU-E methylcellulose culture fold change from T=0 ([1]; P4, T = 24 h, 80 μg/kg s.c.): 0.79 fold
- CFU-GEMM methylcellulose culture fold change from T=0 ([1]; P4, T = 24 h, 80 μg/kg s.c.): 0.98 fold
- CFU-GEMM methylcellulose culture fold change from T=0 ([1]; P5, T = 3 h, 80 μg/kg s.c.): 4.43 fold
- CFU-GM methylcellulose culture fold change from T=0 ([1]; P5, T = 3 h, 80 μg/kg s.c.): 8.40 fold
- BFU-E methylcellulose culture % CHG ([1]; T = 1 h, mean of five donors, 80 μg/kg s.c.): 98.9%
- time of maximal fold increases in circulating levels of progenitor cells ([1]; after injection, all five donors): 6 h
- CFU-GM agar culture fold change from T=0 (CFU-GM; P4, T = 24 h): 1.30 fold
- CFU-GM agar culture fold change from T=0 (CFU-GM; P5, T = 3 h): 6.40 fold
- CFU-GM agar culture fold change from T=0 (CFU-GM; P5, T = 24 h): 2.20 fold
- WBC count (WBC): 17,000 / μl
- cardiac remodeling and scar formation [2]: block to cardiac remodeling and scar formation
- mobilization of bone marrow stem cells [2]: mobilizes bone marrow stem cells rapidly
- regeneration of myocardium [2]: regeneration of the dead myocardium
- cycling state of progenitors [3]: slow or non-cycling state
- peak increase in circulating CD34+ progenitor/stem cells [4]: 6 fold
- action at the CXCR4 chemokine receptor (CXCR4 chemokine receptor): antagonist
- PBL-LD nucleated cellularity Fold Change Compared to TIME = 0, MEAN (nucleated cells): 2.86 fold
- PBL-US nucleated cellularity Fold Change Compared to TIME = 0, MEAN (nucleated cells): 2.80 fold
